Values quoted from earlier work in patent publication US9180198B2, “Slow-release cilostazol tablet having an improved elution rate and minimal side effects” (KOREA UNITED PHARM, INC., priority 2009, dated 2015).

How the values were obtained:
blood platelets = blood platelets isolated from a mouse, a rat, a rabbit, a dog and a human
[1] = test system: cAMP-PDE (cyclic AMP phosphodiesterase); settings: in blood platelets and vascular smooth muscles

Compound: O=C1CCc2cc(OCCCCc3nnnn3C3CCCCC3)ccc2N1 [cilostazol, 6-[4-(cyclohexyl-1H-tetrazol-5-yl)butoxy]-3,4-dihydro-2(1H)-quinolinone]
- primary aggregation of blood platelets caused by ADP, epinephrine (blood platelets): suppress the primary aggregation of blood platelets
- cAMP-PDE activity [1]: inhibit cAMP-PDE (cyclic AMP phosphodiesterase) activity
- water solubility: poorly water-soluble
